From patent EP0183129A1, “Quinolonecarboxylic acid derivatives” (KYORIN PHARMACEUTICAL CO., LTD., priority 1984, dated 1986)
≈ marks a conversion by molar mass, not a printed value. Counter-ions that a name gives are not always drawn.

Columns and labels:
P. aeruginosa IID 1210 = assay: In vitro antibacterial activity, MIC (standard strain); type: cell-based; conditions: Pseudomonas aeruginosa, IID1210; P. aeruginosa IID 1210; 10^6 cells/ml; standard strain; read-out: MIC
S. faecalis IID 682 = assay: as above; type: cell-based; conditions: Enterococcus faecalis, IID682; S. faecalis IID 682; 10^6 cells/ml; standard strain; read-out: MIC
S. pyogenes 4372 = assay: In vitro antibacterial activity, MIC (clinical isolates); type: cell-based; conditions: Streptococcus pyogenes; S. pyogenes 4372; 10^6 cells/ml; clinical isolate; read-out: MIC
[1] = tested on: Alcaligenes faecalis 0104002; assay: In vitro antibacterial activity, MIC (standard strain); type: cell-based; conditions: Alcaligenes faecalis, 0104002, Alcaligenes faecalis 0104002; 10^6 cells/ml; standard strain; read-out: MIC
S. epidermidis IID 866 = assay: as above; type: cell-based; conditions: Staphylococcus epidermidis, IID866, S. epidermidis IID 866; 10^6 cells/ml; standard strain; read-out: MIC
S. pneumoniae 28 = assay: In vitro antibacterial activity, MIC (clinical isolates); type: cell-based; conditions: Streptococcus pneumoniae, 10^6 cells/ml, clinical isolate
Shigella sonnei IID 969 = assay: In vitro antibacterial activity, MIC (standard strain); type: cell-based; conditions: IID969, 10^6 cells/ml
Protocol: Experiment-1 In vitro antibacterial activity
The in vitro antibacterial activity against gram-positive and gram-negative bacteria has been investivated.
The minimum inhibitory concentration (MIC) was determined in accordance with the method recommended by Japan Society of Chemotherapy.

[2] = tested on: Bacteroides fragilis GM 7000; assay: as above; type: cell-based; conditions: GM7000; Bacteroides fragilis GM 7000; 10^6 cells/ml; standard strain; read-out: MIC
[3] = tested on: S. aureus IID 670 (Terajima); assay: as above; type: cell-based, Staphylococcus aureus; conditions: Staphylococcus aureus, IID670, S. aureus IID 670 (Terajima); 10^6 cells/ml; standard strain; read-out: MIC
[4] = tested on: Morganella morganii IID 602; assay: as above; type: cell-based; conditions: IID602; Morganella morganii IID 602; 10^6 cells/ml; standard strain; read-out: MIC
[5] = tested on: Bacillus subtilis PCI 219; assay: as above; type: cell-based; conditions: PCI219; Bacillus subtilis PCI 219; 10^6 cells/ml; standard strain; read-out: MIC
[6] = tested on: Clostridium perfringens KYA 13123; assay: microbe, parasite or virus in culture; type: cell-based; conditions: KYA13123
S. agalactiae 4470 = assay: In vitro antibacterial activity, MIC (clinical isolates); type: cell-based; conditions: Streptococcus agalactiae; S. agalactiae 4470; 10^6 cells/ml; clinical isolate; read-out: MIC
S. pneumoniae 2054 = assay: as above; type: cell-based; conditions: Streptococcus pneumoniae; S. pneumoniae 2054; 10^6 cells/ml; clinical isolate; read-out: MIC
S. pneumoniae 24 = assay: as above; type: cell-based; conditions: Streptococcus pneumoniae; S. pneumoniae 24; 10^6 cells/ml; clinical isolate; read-out: MIC
E. coli ML 4707 = assay: In vitro antibacterial activity, MIC (standard strain); type: cell-based; conditions: Escherichia coli, ML4707; E. coli ML 4707; 10^6 cells/ml; standard strain; read-out: MIC
E. coli ATCC 10536 = assay: as above; type: cell-based; conditions: Escherichia coli, ATCC10536; E. coli ATCC 10536; 10^6 cells/ml; standard strain; read-out: MIC
S. pyogenes 3130 = assay: In vitro antibacterial activity, MIC (clinical isolates); type: cell-based; conditions: Streptococcus pyogenes, read-out: MIC
[7] = tested on: Staphylococcus aureus 209 P; assay: In vitro antibacterial activity, MIC (standard strain); type: cell-based; conditions: Staphylococcus aureus 209 P; 10^6 cells/ml; standard strain; read-out: MIC
S. aureus Smith = assay: In vivo antibacterial activity against systemic infection in mice; design: species or system mice (ICR-S); conditions: Staphylococcus aureus, po, mice (ICR-S), an hour after intraperitoneal infection, challenge dose 7 x 10^5 cfu/mouse, n=5, read-out: ED50 against S. aureus Smith
Protocol: Experiment-2 In vivo antibacterial activity against systemic infection in mice (ICR-S)
The infections were produced by intraperitoneal injection of a suspension of the bacterial culture corresponding to the germ studied. The products were administered orally at an hour after the infection.

P. aeruginosa IFO 12689 = assay: In vitro antibacterial activity, MIC (standard strain); type: cell-based, Pseudomonas aeruginosa; conditions: Pseudomonas aeruginosa, IFO12689; P. aeruginosa IFO 12689; 10^6 cells/ml; standard strain; read-out: MIC
B. fragilis 25285 = assay: as above; type: cell-based, Bacteroides fragilis; conditions: Bacteroides fragilis, 25285, B. fragilis 25285; 10^6 cells/ml; standard strain; read-out: MIC
[8] = tested on: Citrobacter freundii IID 976; assay: as above; type: cell-based; conditions: IID976; Citrobacter freundii IID 976; 10^6 cells/ml; standard strain; read-out: MIC
[9] = tested on: Enterobacter cloacae IID 977; assay: as above; type: cell-based; conditions: Enterobacter cloacae, IID977, Enterobacter cloacae IID 977; 10^6 cells/ml; standard strain; read-out: MIC
S. pneumoniae 3227 = assay: In vitro antibacterial activity, MIC (clinical isolates); type: cell-based; conditions: Streptococcus pneumoniae; S. pneumoniae 3227; 10^6 cells/ml; clinical isolate; read-out: MIC
[10] = tested on: Fusobacterium varium KYA 8501; assay: In vitro antibacterial activity, MIC (standard strain); type: cell-based; conditions: Fusobacterium varium, KYA8501, Fusobacterium varium KYA 8501; 10^6 cells/ml; standard strain; read-out: MIC

`NCC1CCN(c2c(F)cc3c(=O)c(C(=O)O)cn(C4CC4)c3c2F)C1` (stereo not drawn) [Example 1, 7-(3-Aminomethyl-l-pyrrolidinyl)-l-cyclopropyl-6,8-difluoro-1,4-dihydro-4-oxo-3-quinolinecarboxylic acid hydrochloride] showed an MIC (P. aeruginosa IID 1210) of 0.78 mg/L, an MIC (S. faecalis IID 682) of 0.05 mg/L and an MIC (S. pyogenes 4372) of 0.05 mg/L. The MIC [1] was 0.39 mg/L, the MIC (S. epidermidis IID 866) was 0.05 mg/L and the MIC (S. pneumoniae 28) was 0.05 mg/L. It also gave an MIC (Shigella sonnei IID 969) of 0.025 mg/L, an MIC [2] of 0.78 mg/L and an MIC [3] of 0.05 mg/L. For the same compound, the MIC [4] was 0.1 mg/L, the MIC [5] was 0.025 mg/L and the MIC [6] was 0.39 mg/L. It also gave an MIC (S. agalactiae 4470) of 0.05 mg/L, an MIC (S. pneumoniae 2054) of 0.05 mg/L and an MIC (S. pneumoniae 24) of 0.05 mg/L. It also gave an MIC (E. coli ML 4707) of 0.025 mg/L, an MIC (E. coli ATCC 10536) of 0.025 mg/L and an MIC (S. pyogenes 3130) of 0.05 mg/L. It also gave an MIC [7] of 0.05 mg/L, an ED50 (S. aureus Smith) of 0.9 mg/kg and an MIC (P. aeruginosa IFO 12689) of 0.39 mg/L. It also gave an MIC (B. fragilis 25285) of 0.39 mg/L, an MIC [8] of 0.05 mg/L and an MIC [9] of 0.1 mg/L. It also gave an MIC (S. pneumoniae 3227) of 0.05 mg/L and an MIC [10] of 0.78 mg/L.

In the case of `CCNCC1CCN(c2c(F)cc3c(=O)c(C(=O)O)cn(C4CC4)c3c2Br)C1` (stereo not drawn) [Example 17, 8-Bromo-l-cyclopropyl-7-(3-ethylaminomethyl-l-pyrrolidinyl)-6-fluoro-1,4-dihydro-4-oxo-3-quinolinecarboxylic acid], the MIC (P. aeruginosa IID 1210) is reported as 1.56 mg/L (≈ 3.45 µM), the MIC (S. faecalis IID 682) is reported as 0.05 mg/L (≈ 0.111 µM) and the MIC (S. pyogenes 4372) is reported as 0.05 mg/L (≈ 0.111 µM). It also gave an MIC [1] of 0.39 mg/L (≈ 0.862 µM), an MIC (S. epidermidis IID 866) of 0.025 mg/L (≈ 0.0553 µM) and an MIC (Shigella sonnei IID 969) of 0.025 mg/L (≈ 0.0553 µM). It also gave an MIC [2] of 0.1 mg/L (≈ 0.221 µM), an MIC [3] of 0.025 mg/L (≈ 0.0553 µM) and an MIC [4] of 0.2 mg/L (≈ 0.442 µM). The MIC [5] was 0.0125 mg/L (≈ 0.0276 µM), the MIC [6] was 0.1 mg/L (≈ 0.221 µM) and the MIC (S. agalactiae 4470) was 0.05 mg/L (≈ 0.111 µM). The MIC (S. pneumoniae 2054) was 0.05 mg/L (≈ 0.111 µM), the MIC (E. coli ML 4707) was 0.025 mg/L (≈ 0.0553 µM) and the MIC (E. coli ATCC 10536) was 0.025 mg/L (≈ 0.0553 µM). The MIC (S. pyogenes 3130) was 0.05 mg/L (≈ 0.111 µM), the MIC [7] was 0.0125 mg/L (≈ 0.0276 µM) and the MIC (P. aeruginosa IFO 12689) was 3.13 mg/L (≈ 6.92 µM). It also gave an MIC (B. fragilis 25285) of no more than 0.05 mg/L, an MIC [8] of 0.05 mg/L (≈ 0.111 µM) and an MIC [9] of 0.1 mg/L (≈ 0.221 µM). It also gave an MIC (S. pneumoniae 3227) of 0.05 mg/L (≈ 0.111 µM) and an MIC [10] of 0.39 mg/L (≈ 0.862 µM).
